Experimental data reported in patent publication US12667572B2, “Tricyclic compounds useful in the treatment of cancer, autoimmune and inflammatory disorders” (SCHRÖDINGER, INC., priority 2021, dated 2026).

Target: T1, full-length MALT1 protein His-MALT1(1-824) (Homo sapiens, UniProt Q9UDY8)
T1 construct: full-length MALT1 protein His-MALT1(1-824); His (N); made in house; host or cells: baculovirus-infected insect cells
T1 sequence (Q9UDY8 1-824): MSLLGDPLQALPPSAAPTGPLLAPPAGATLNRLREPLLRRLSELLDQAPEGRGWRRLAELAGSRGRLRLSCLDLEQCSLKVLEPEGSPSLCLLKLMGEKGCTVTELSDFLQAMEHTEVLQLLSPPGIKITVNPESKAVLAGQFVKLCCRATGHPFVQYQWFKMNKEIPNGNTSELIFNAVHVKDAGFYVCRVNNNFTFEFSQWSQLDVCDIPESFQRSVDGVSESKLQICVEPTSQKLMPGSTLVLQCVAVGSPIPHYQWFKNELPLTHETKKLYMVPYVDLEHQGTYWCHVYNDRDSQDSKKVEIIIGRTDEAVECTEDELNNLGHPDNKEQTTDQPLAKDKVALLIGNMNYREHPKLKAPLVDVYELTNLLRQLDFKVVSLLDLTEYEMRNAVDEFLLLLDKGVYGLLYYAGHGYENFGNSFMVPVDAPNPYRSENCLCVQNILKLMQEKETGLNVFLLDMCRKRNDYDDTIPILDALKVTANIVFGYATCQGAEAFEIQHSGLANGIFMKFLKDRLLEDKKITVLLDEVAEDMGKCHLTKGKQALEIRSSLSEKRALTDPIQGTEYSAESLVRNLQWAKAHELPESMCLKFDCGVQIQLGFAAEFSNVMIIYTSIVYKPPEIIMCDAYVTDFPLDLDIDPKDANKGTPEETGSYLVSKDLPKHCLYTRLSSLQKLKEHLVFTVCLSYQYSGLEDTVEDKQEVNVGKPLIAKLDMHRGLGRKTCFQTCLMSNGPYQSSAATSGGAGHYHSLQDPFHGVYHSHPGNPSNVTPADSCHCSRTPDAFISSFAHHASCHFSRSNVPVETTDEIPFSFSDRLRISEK
Test: MALT1 protease assay, Assay 2 (1 nM MALT1, Ac-LRSR-AMC substrate)
Type: biochemical
Conditions: 1 nM MALT1, 50 μM Ac-LRSR-AMC, 2 h pre-incubation, 8 hr incubation at RT
Experimental: MALT1 protease activity was assessed in an in vitro assay using a tetrapeptide as substrate and full-length MALT1 protein His-MALT1(1-824) purified from baculovirus-infected insect cells. The tetrapeptide substrate is Ac-LRSR-AMC (SM Biochemicals) with Km measured at around 100 μM.
The final assay buffer includes 1 nM (Assay 2) or 2 nM (Assay 1) of MALT1 full-length protein, 50 μM Ac-LRSR-AMC substrate, 50 mM Tris pH 7.5, 600 mM Sodium Citrate, 1 mM DTT, 1 mM EDTA, and 0.05% BSA in 384-well plate format using black microtiter square well plates (Optiplate 384-F, Perkin Elmer).
Test compounds were dissolved in 100% DMSO at stock of 10 mM, with final DMSO concentration 0.1%. Test compounds were pre-incubated with MALT1 protein for 2 h at room temperature. Substrate was added after the pre-incubation and fluorescence signal was measured using Envision at excitation 355 nm and emission 460 nm after 8 hr incubation at RT. Increase in the assay signal was linear over this period and proportional with increase in the enzyme content.
The fluorescence units were transformed to percentage of remaining activity by using the high control (HC, median of fluorescence signal from wells containing MALT1 protein, substrate, and DMSO) and low control (LC, median of fluorescence signal from wells with substrate only) with the formula below: […]
IC50 and Hill coefficients were obtained using Graph Pad Prism (Graph Pad software, Inc, USA) with non-linear regression analysis.

IC50 [nM] | Structure (SMILES)
≥ 1000 | CC1(C)C[C@@H](C(=O)Nc2cnc(OC3CC3)c(C#N)c2)c2cnc3cc(F)nn3c21 (single isomer, unassigned) [Example 80, N-(5-cyano-6-cyclopropoxypyridin-3-yl)-2-fluoro-8,8-dimethyl-7,8-dihydro-6H-cyclopenta[e]pyrazolo[1,5-a]pyrimidine-6-carboxamide]
100 to 1000 | CC1(C)C[C@@H](C(=O)Nc2cnc(OC(F)F)c(C#N)c2)c2cnc3cc(F)nn3c21 (single isomer, unassigned) [Example 83, N-(5-cyano-6-(difluoromethoxy)pyridin-3-yl)-2-fluoro-8,8-dimethyl-7,8-dihydro-6H-cyclopenta[e]pyrazolo[1,5-a]pyrimidine-6-carboxamide]
≥ 1000 | CC1(C)CC(C(=O)Nc2cnc(OC(F)F)c(C#N)n2)c2cnc3cc(F)nn3c21 (single isomer, unassigned) [Example 86, N-(6-cyano-5-(difluoromethoxy)pyrazin-2-yl)-2-fluoro-8,8-dimethyl-7,8-dihydro-6H-cyclopenta[e]pyrazolo[1,5-a]pyrimidine-6-carboxamide]
≥ 1000 | CC1(C)CC(C(=O)Nc2cnc(OC(F)F)c(C#N)n2)c2cnc3cc(F)nn3c21 (single isomer, unassigned) [Example 87, N-(6-cyano-5-(difluoromethoxy)pyrazin-2-yl)-2-fluoro-8,8-dimethyl-7,8-dihydro-6H-cyclopenta[e]pyrazolo[1,5-a]pyrimidine-6-carboxamide]
10 to 100 | CC1(C)CC(C(=O)Nc2cnc(-n3nccn3)c(C#N)c2)c2cnc3cc(F)nn3c21 (single isomer, unassigned) [Example 88, N-(5-cyano-6-(2H-1,2,3-triazol-2-yl)pyridin-3-yl)-2-fluoro-8,8-dimethyl-7,8-dihydro-6H-cyclopenta[e]pyrazolo[1,5-a]pyrimidine-6-carboxamide]
≥ 1000 | CC1(C)C[C@@H](C(=O)Nc2cnc(OC(F)F)c(C#N)c2)c2cnc3c(F)c(F)nn3c21 (single isomer, unassigned) [Example 90, N-(5-cyano-6-(difluoromethoxy)pyridin-3-yl)-2,3-difluoro-8,8-dimethyl-7,8-dihydro-6H-cyclopenta[e]pyrazolo[1,5-a]pyrimidine-6-carboxamide]
≥ 1000 | COc1cnc(C(F)(F)F)cc1NC(=O)C1CC(C)(C)c2c1cnc1cc(F)nn21 (single isomer, unassigned) [Example 93, 2-fluoro-N-(5-methoxy-2-(trifluoromethyl)pyridin-4-yl)-8,8-dimethyl-7,8-dihydro-6H-cyclopenta[e]pyrazolo[1,5-a]pyrimidine-6-carboxamide]
100 to 1000 | N#Cc1cc(NC(=O)[C@@H]2CC3(CCC3)c3c2cnc2cc(F)nn32)cnc1OC(F)F (single isomer, unassigned) [Example 102, N-(5-cyano-6-(difluoromethoxy)pyridin-3-yl)-2′-fluoro-6′,7′-dihydrospiro[cyclobutane-1,8′-cyclopenta[e]pyrazolo[1,5-a]pyrimidine]-6′-carboxamide]

Second part, the molecule before the results:

Structure (SMILES) | IC50 [nM]
COc1cnc(C(F)(F)F)cc1NC(=O)C1CC(C)(C)c2c1cnc1cc(F)nn21 (single isomer, unassigned) [Example 92, 2-fluoro-N-(5-methoxy-2-(trifluoromethyl)pyridin-4-yl)-8,8-dimethyl-7,8-dihydro-6H-cyclopenta[e]pyrazolo[1,5-a]pyrimidine-6-carboxamide] | 100 to 1000
O=C(Nc1cnc(-n2nccn2)c(Cl)c1)[C@@H]1CC2(CC2)c2c1cnc1cc(F)nn21 (single isomer, unassigned) [Example 94, N-(5-chloro-6-(2H-1,2,3-triazol-2-yl)pyridin-3-yl)-2-fluoro-6,7-dihydrospiro[cyclopenta[e]pyrazolo[1,5-a]pyrimidine-8,1′-cyclopropane]-6-carboxamide] | 10 to 100
CC1(C)C[C@@H](C(=O)Nc2ccnc(C(F)(F)F)c2)c2cnc3cc(C(F)F)nn3c21 (single isomer, unassigned) [Example 98, 2-(difluoromethyl)-8,8-dimethyl-N-(2-(trifluoromethyl)pyridin-4-yl)-7,8-dihydro-6H-cyclopenta[e]pyrazolo[1,5-a]pyrimidine-6-carboxamide] | ≥ 1000
CC1(C)CC(C(=O)Nc2ccnc(C(F)(F)F)c2)c2cnc3cc(C(F)F)nn3c21 (single isomer, unassigned) [Example 99, 2-(difluoromethyl)-8,8-dimethyl-N-(2-(trifluoromethyl)pyridin-4-yl)-7,8-dihydro-6H-cyclopenta[e]pyrazolo[1,5-a]pyrimidine-6-carboxamide] | 100 to 1000
CC1(C)CC(C(=O)Nc2cnc(-n3nccn3)c(Cl)c2)c2cnc3c(F)cnn3c21 (single isomer, unassigned) [Example 100, N-(5-chloro-6-(2H-1,2,3-triazol-2-yl)pyridin-3-yl)-3-fluoro-8,8-dimethyl-7,8-dihydro-6H-cyclopenta[e]pyrazolo[1,5-a]pyrimidine-6-carboxamide] | 100 to 1000
CC(C)(O)c1ncc(NC(=O)[C@@H]2CC3(CCC3)c3c2cnc2cc(F)nn32)cc1Cl (single isomer, unassigned) [Example 104, N-(5-chloro-6-(2-hydroxypropan-2-yl)pyridin-3-yl)-2′-fluoro-6′,7′-dihydrospiro[cyclobutane-1,8′-cyclopenta[e]pyrazolo[1,5-a]pyrimidine]-6′-carboxamide] | ≥ 1000
CC(C)(O)c1ncc(NC(=O)[C@H]2CC3(CCC3)c3c2cnc2cc(F)nn32)cc1Cl (single isomer, unassigned) [Example 105, N-(5-chloro-6-(2-hydroxypropan-2-yl)pyridin-3-yl)-2′-fluoro-6′,7′-dihydrospiro[cyclobutane-1,8′-cyclopenta[e]pyrazolo[1,5-a]pyrimidine]-6′-carboxamide] | ≥ 1000
CC1(C)C[C@@H](C(=O)Nc2cnc(-n3nccn3)c(C#N)c2)c2cnc3cc(Cl)nn3c21 (single isomer, unassigned) [Example 106, 2-chloro-N-(5-cyano-6-(2H-1,2,3-triazol-2-yl)pyridin-3-yl)-8,8-dimethyl-7,8-dihydro-6H-cyclopenta[e]pyrazolo[1,5-a]pyrimidine-6-carboxamide] | 10 to 100
O=C(Nc1cnc(-n2nccn2)c(Cl)c1)C1CC2(CCC2)c2c1cnc1cc(F)nn21 (single isomer, unassigned) [Example 109, N-(5-chloro-6-(2H-1,2,3-triazol-2-yl)pyridin-3-yl)-2′-fluoro-6′,7′-dihydrospiro[cyclobutane-1,8′-cyclopenta[e]pyrazolo[1,5-a]pyrimidine]-6′-carboxamide] | ≥ 1000
CC1(C)C[C@@H](C(=O)Nc2cnc(-n3ncc(C4COC4)n3)c(Cl)c2)c2cnc3cc(Cl)nn3c21 (single isomer, unassigned) [Example 110, 2-chloro-N-(5-chloro-6-(4-(oxetan-3-yl)-2H-1,2,3-triazol-2-yl)pyridin-3-yl)-8,8-dimethyl-7,8-dihydro-6H-cyclopenta[e]pyrazolo[1,5-a]pyrimidine-6-carboxamide] | 10 to 100
Cc1c(F)nn2c3c(cnc12)C(C(=O)Nc1cnc(-n2nccn2)c(Cl)c1)CC3(C)C (single isomer, unassigned) [Example 113, N-(5-chloro-6-(2H-1,2,3-triazol-2-yl)pyridin-3-yl)-2-fluoro-3,8,8-trimethyl-7,8-dihydro-6H-cyclopenta[e]pyrazolo[1,5-a]pyrimidine-6-carboxamide] | ≥ 1000
Cc1c(F)nn2c3c(cnc12)C(C(=O)Nc1cnc(-n2nccn2)c(Cl)c1)CC3(C)C (single isomer, unassigned) [Example 114, N-(5-chloro-6-(2H-1,2,3-triazol-2-yl)pyridin-3-yl)-2-fluoro-3,8,8-trimethyl-7,8-dihydro-6H-cyclopenta[e]pyrazolo[1,5-a]pyrimidine-6-carboxamide] | 100 to 1000
